From US8952024B2, “Herbicidal pyrimidone derivatives” (E I du Pont de Nemours and Company, priority 2009, dated 2015)

Columns and labels:
Type in all cases: in vivo
[1] = test system: giant foxtail (Setaria faberii); experiment: Test A pre-/postemergence plant response
In short: (§1)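 Visually rated 0–100 injury (100 = complete control) versus untreated plants, ~10 days in greenhouse. Application pre- (soil spray, loam/sand) and postemergence (2–10 cm, 1–2 leaf stage), same timepoint.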

[2] = test system: morningglory (Ipomoea spp.); experiment: Test A pre-/postemergence plant response
In short: as §1

[3] = test system: large crabgrass (Digitaria sanguinalis); experiment: Test A pre-/postemergence plant response
In short: as §1

[4] = test system: corn (Zea mays); experiment: Test A pre-/postemergence plant response
In short: as §1

[5] = test system: wheat (Triticum aestivum); experiment: Test A pre-/postemergence plant response
In short: as §1

[6] = test system: velvetleaf (Abutilon theophrasti); experiment: Test A pre-/postemergence plant response
In short: as §1

[7] = test system: nightshade (eastern black nightshade, Solanum ptycanthum); experiment: Test B pre-/postemergence plant response; conditions: Preemergence
In short: (§2)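 Plants treated either at seeding (loam/sand soil) or postemergence at 2 to 18 cm height, using a surfactant-containing non-phytotoxic solvent formulation. Evaluation was visual after 13 to 15 days, 0 to 100 scale relative to controls.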

[8] = test system: galium (catchweed bedstraw, Galium aparine); experiment: Test B pre-/postemergence plant response
In short: as §2

[9] = test system: sunflower (common oilseed sunflower, Helianthus annuus); experiment: Test B pre-/postemergence plant response; conditions: Preemergence
In short: as §2

[10] = test system: chickweed (Stellaria media); experiment: Test B postemergence plant response
In short: (§3)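 Visual ratings from 0 (no effect) to 100 (complete control), made against controls 13–15 days after treatment, kept in a greenhouse. Compounds were applied postemergence to potted plants at the 1- to 4-leaf stage (2–18 cm).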

[11] = test system: windgrass (Apera spica-venti); experiment: Test B postemergence plant response
In short: as §3

[12] = test system: winter barley (Hordeum vulgare); experiment: Test B postemergence plant response
In short: as §3

[13] = test system: canarygrass (Phalaris minor); experiment: Test B postemergence plant response
In short: as §3

[14] = Postemergence, 125 g ai/ha, visual injury, 0 to 100 scale (0 no effect, 100 complete control), approx. ten days
[15] = Postemergence, 500 g ai/ha, 0 to 100 scale, 0 = no effect, 100 = complete control, approx. ten days
[16] = Preemergence, 500 g ai/ha, visual injury, 0 to 100 scale (0 no effect, 100 complete control), approx. ten days
[17] = Preemergence, 125 g ai/ha, 0 to 100 scale, 0 = no effect, 100 = complete control
[18] = 31 g ai/ha, scale 0 to 100 (0 no effect, 100 complete control)
[19] = 62 g ai/ha, scale 0 to 100, 0 no effect, 100 complete control
[20] = 125 g ai/ha, scale 0 to 100, 0 no effect, 100 complete control
[21] = Preemergence, 31 g ai/ha, scale 0 to 100 (0 no effect, 100 complete control)
[22] = Preemergence, 62 g ai/ha, scale 0 to 100, 0 no effect, 100 complete control
[23] = Preemergence, 125 g ai/ha, scale 0 to 100, 0 no effect, 100 complete control
[24] = 31 g ai/ha, postemergence, scale 0 to 100, 0 is no effect, 100 is complete control
[25] = Postemergence, 62 g ai/ha, scale 0 (no effect) to 100 (complete control), 13 to 15 days
[26] = Postemergence, 125 g ai/ha, visual rating after 13 to 15 days, scale 0 (no effect) to 100 (complete control)
[27] = Postemergence, 250 g ai/ha, scale 0 to 100 (0 no effect, 100 complete control)
[28] = Postemergence, 125 g ai/ha, 0 to 100 scale where 0 is no effect and 100 is complete control
[29] = Postemergence, 500 g ai/ha, visual injury, 0 to 100 scale (0 no effect, 100 complete control), approx. ten days
[30] = Preemergence, 500 g ai/ha, 0 to 100 scale, 0 = no effect, 100 = complete control
[31] = Postemergence, 31 g ai/ha, 0 to 100 scale (0 no effect, 100 complete control)
[32] = Postemergence, 125 g ai/ha, scale 0 to 100 (0 no effect, 100 complete control)
[33] = Postemergence, 250 g ai/ha, scale 0 to 100 (0 no effect, 100 complete control), 13 to 15 days
[34] = Postemergence, 62 g ai/ha, scale 0 to 100 (0 no effect, 100 complete control)

In the case of O=C1CCCC(O)=C1C(=O)c1cnc(-c2cccs2)n(-c2ccccc2)c1=O [Compound 66], the “Foxtail, Giant plant response rating” value [1, 14] is reported as 70, the “Plant response rating, Foxtail, Giant” value [1, 15] is reported as 80 and the “Plant response rating, Foxtail, Giant” value [1, 16] is reported as 80. The “Morningglory plant response rating” value [2, 14] was 90, the “Plant response rating, Morningglory” value [2, 15] was 90 and the “Plant response rating, Morningglory” value [2, 17] was 0. For the same compound, the “Plant response rating, Morningglory” value [2, 16] was 30, the “Crabgrass, Large plant response rating” value [3, 14] was 70 and the “Plant response rating, Crabgrass, Large” value [3, 15] was 90. For the same compound, the “Plant response rating, Crabgrass, Large” value [3, 17] was 90, the “Plant response rating, Crabgrass, Large” value [3, 16] was 100 and the “Plant response rating, Corn” value [4, 15] was 60. For the same compound, the “Plant response rating, Corn” value [4, 17] was 0, the “Plant response rating, Corn” value [4, 16] was 0 and the “Wheat plant response rating” value [5, 14] was 0. The “Plant response rating, Wheat” value [5, 15] was 0, the “Plant response rating, Wheat” value [5, 17] was 0 and the “Plant response rating, Wheat” value [5, 16] was 0. The “Velvetleaf plant response rating” value [6, 14] was 100, the “Plant response rating, Velvetleaf” value [6, 15] was 100 and the “Plant response rating, Velvetleaf” value [6, 17] was 70. The “Plant response rating, Velvetleaf” value [6, 16] was 100, the “Plant response rating, Nightshade” value [7, 18] was 80 and the “Plant response rating, Nightshade” value [7, 19] was 95. For the same compound, the “Plant response rating, Nightshade” value [7, 20] was 98, the “Plant response rating, Galium” value ([8]; 250 g ai/ha, Preemergence, 0 to 100 scale) was 0 and the “Plant response rating, Galium” value [8, 21] was 0. For the same compound, the “Plant response rating, Galium” value [8, 22] was 0, the “Plant response rating, Galium” value [8, 23] was 0 and the “Plant response rating, Sunflower” value [9, 18] was 0. For the same compound, the “Plant response rating, Sunflower” value [9, 19] was 0, the “Plant response rating, Sunflower” value [9, 20] was 0 and the “Plant response rating, Chickweed” value [10, 24] was 80. The “Plant response rating, Chickweed” value [10, 25] was 85, the “Plant response rating, Chickweed” value [10, 26] was 95 and the “Plant response rating, Chickweed” value [10, 27] was 98. The “Plant response rating, Windgrass” value [11, 24] was 60, the “Plant response rating, Windgrass” value [11, 25] was 60 and the “Plant response rating, Windgrass” value [11, 26] was 70. The “Plant response rating, Windgrass” value [11, 27] was 80, the “Plant response rating, Barley” value [12, 24] was 0 and the “Plant response rating, Barley” value [12, 25] was 0. The “Plant response rating, Barley” value [12, 26] was 0, the “Plant response rating, Barley” value [12, 27] was 0 and the “Plant response rating, Canarygrass” value [13, 24] was 0. The “Plant response rating, Canarygrass” value [13, 25] was 0, the “Plant response rating, Canarygrass” value [13, 26] was 0 and the “Plant response rating, Canarygrass” value [13, 27] was 0.
For CCCCn1c(C2CC2)ncc(C(=O)C2=C(O)CCCC2=O)c1=O [Compound 193], the “Plant response rating, Foxtail, Giant” value [1, 28] was 90, the “Foxtail, Giant plant response rating” value [1, 29] was 100 and the “Plant response rating, Foxtail, Giant” value [1, 17] was 90. The “Plant response rating, Foxtail, Giant” value [1, 30] was 90, the “Plant response rating, Morningglory” value [2, 28] was 100 and the “Morningglory plant response rating” value [2, 29] was 100. For the same compound, the “Plant response rating, Morningglory” value [2, 17] was 80, the “Plant response rating, Morningglory” value [2, 30] was 90 and the “Plant response rating, Crabgrass, Large” value [3, 28] was 100. For the same compound, the “Crabgrass, Large plant response rating” value [3, 29] was 100, the “Plant response rating, Crabgrass, Large” value [3, 17] was 90 and the “Plant response rating, Crabgrass, Large” value [3, 30] was 100. For the same compound, the “Plant response rating, Corn” value [4, 28] was 10, the “Corn plant response rating” value [4, 29] was 40 and the “Plant response rating, Corn” value [4, 17] was 0. The “Plant response rating, Corn” value [4, 30] was 0, the “Plant response rating, Wheat” value [5, 28] was 40 and the “Wheat plant response rating” value [5, 29] was 70. For the same compound, the “Plant response rating, Wheat” value [5, 17] was 0, the “Plant response rating, Wheat” value [5, 30] was 50 and the “Plant response rating, Velvetleaf” value [6, 28] was 100. The “Velvetleaf plant response rating” value [6, 29] was 100, the “Plant response rating, Velvetleaf” value [6, 17] was 100 and the “Plant response rating, Velvetleaf” value [6, 30] was 100. For the same compound, the “Plant response rating, Nightshade” value [7, 18] was 100, the “Plant response rating, Nightshade” value [7, 19] was 100 and the “Plant response rating, Nightshade” value [7, 20] was 100. For the same compound, the “Nightshade plant response rating” value ([7]; 250 g ai/ha, 0 to 100 scale) was 100, the “Plant response rating, Galium” value [8, 31] was 75 and the “Plant response rating, Galium” value [8, 32] was 90. For the same compound, the “Plant response rating, Galium” value [8, 33] was 90, the “Plant response rating, Galium” value [8, 21] was 75 and the “Plant response rating, Galium” value [8, 22] was 100. The “Plant response rating, Galium” value [8, 23] was 100, the “Galium plant response rating” value ([8]; Preemergence, 250 g ai/ha, 0 to 100 scale) was 100 and the “Plant response rating, Sunflower” value [9, 18] was 70. For the same compound, the “Plant response rating, Sunflower” value [9, 19] was 80, the “Plant response rating, Sunflower” value [9, 20] was 80 and the “Sunflower plant response rating” value ([9]; 250 g ai/ha, 0 to 100 scale) was 95. For the same compound, the “Plant response rating, Chickweed” value [10, 31] was 95, the “Plant response rating, Chickweed” value [10, 32] was 100 and the “Plant response rating, Chickweed” value [10, 33] was 100. The “Plant response rating, Chickweed” value [10, 34] was 98, the “Plant response rating, Windgrass” value [11, 31] was 50 and the “Plant response rating, Windgrass” value [11, 33] was 75. For the same compound, the “Plant response rating, Windgrass” value [11, 34] was 70, the “Plant response rating, Barley” value [12, 31] was 0 and the “Plant response rating, Barley” value [12, 32] was 50. The “Plant response rating, Barley” value [12, 33] was 50, the “Plant response rating, Barley” value [12, 34] was 0 and the “Plant response rating, Canarygrass” value [13, 31] was 5. For the same compound, the “Plant response rating, Canarygrass” value [13, 32] was 25, the “Plant response rating, Canarygrass” value [13, 33] was 25 and the “Plant response rating, Canarygrass” value [13, 34] was 5.
